Assay results reported in patent US4977268A, “Boron dipeptide compounds” (priority 1988, dated 1990).
Converted amounts (≈) assume the structure as drawn.

Tests used:
[1] = system: P-388 lymphocytic leukemia; assay: Cytotoxic assay, P-388 lymphocytic leukemia cell line; type: cell-based; conditions: dosage required to kill 50 percent of the tumor cells in cell culture
Description: (§2) Boron dipeptide analogs were investigated for potential antineoplastic activity in the Ehrlich ascites carcinoma in vivo screen in CF-1 mice and in cytotoxic assays involving the L-1210 lymphoid leukemia and P-388 lymphocytic leukemia cell lines. The ED50 is the effective dosage required to kill 50 percent of the tumor cells in the leukemia cell culture.

L-1210 lymphoid leukemia = assay: Cytotoxic assay, L-1210 lymphoid leukemia cell line; type: cell-based; conditions: dosage required to kill 50 percent of the tumor cells in cell culture
Description: as §2

[2] = system: Ehrlich ascites carcinoma; assay: Ehrlich ascites carcinoma in vivo screen; set-up: concentration or dose not given beside the values; conditions: CF-1 mice
[3] = system: Serum triglyceride levels; assay: Antihyperlipidemic screen, serum triglyceride; type: in vivo; conditions: male CF1 mice
Procedure: (§1) Compounds to be tested were suspended in 1% aqueous carboxymethylcellulose and administered to male CF1 mice (25 g) intraperitoneally for 16d. On days 9 and 16, blood was obtained by tail vein bleeding, and the serum was separated by centrifugation for three minutes. The serum cholesterol levels were determined by a modification of the Liebermann-Burchard reaction [A. T. Ness, J. V. Pastewka, and A. C. Peacock, Clin. Chim. Acta, 10, 229 (1964)]. Serum triglyceride levels were determined with a commercial kit [Fisher, Hycel Triglyceride Test Kit] for a different group of animal bled on day 16.

serum cholesterol levels = assay: Antihyperlipidemic screen, serum cholesterol; type: in vivo; conditions: male CF1 mice
Procedure: as §1

| SMILES | ED50 Cytotoxicity P-388 Lymphocytic Leukemia [1] [µg/mL] | ED50 Cytotoxicity L-1210 Lymphoid Leukemia (L-1210 lymphoid leukemia) [µg/mL] | In Vivo % Inhibition of Ehrlich Ascites Carcinoma Growth [2] [%] | % Inhibition Serum Triglyceride Day 16 ([3]; 8 mg/kg intraperitoneally) [%] | % Inhibition Serum Cholesterol Day 9 (serum cholesterol levels; 8 mg/kg intraperitoneally) [%] | % Inhibition Serum Cholesterol Day 16 (serum cholesterol levels; 8 mg/kg intraperitoneally) [%] | % Inhibition Serum Triglyceride Day 16 ([3]; 20 mg/kg intraperitoneally) [%] | % Inhibition Serum Cholesterol Day 9 (serum cholesterol levels; 20 mg/kg intraperitoneally) [%] | % Inhibition Serum Cholesterol Day 16 (serum cholesterol levels; 20 mg/kg intraperitoneally) [%] |
| --- | --- | --- | --- | --- | --- | --- | --- | --- | --- |
| O=c1[nH]cc(F)c(=O)[nH]1 [5-Fluorouracil, reference compound] | 3.72 (≈ 28.6 µM) | 1.94 (≈ 14.9 µM) | – | – | – | – | – | – | – |
| Sc1ncnc2nc[nH]c12 [6-Mercaptopurine, reference compound] | 4.10 (≈ 26.9 µM) | 2.43 (≈ 16 µM) | 99.6 | – | – | – | – | – | – |
| Nc1ccn([C@@H]2O[C@H](CO)[C@@H](O)[C@@H]2O)c(=O)n1 [Ara C, reference compound] | 4.06 (≈ 16.7 µM) | 2.76 (≈ 11.3 µM) | – | – | – | – | – | – | – |
| NC(=O)CNC(=O)[BH2-][NH3+] [Compound 1, N-[(ammonia-boryl)carbonyl]glycine amide] | 7.62 (≈ 58.2 µM) | 1.40 (≈ 10.7 µM) | 67 | 53 | 21 | 42 | – | – | – |
| NC(=O)C(CO)NC(=O)[BH2-][NH3+] (stereo not drawn) [Compound 2, N-[(Ammoniaboryl)carbonyl]serine amide] | 8.73 (≈ 54.2 µM) | 10.6 (≈ 65.9 µM) | 52 | – | – | – | – | – | – |
| CSCCC(NC(=O)[BH2-][NH3+])C(N)=O (stereo not drawn) [Compound 3, N-[(Ammonia-boryl)carbonyl] methionine amide] | 8.57 (≈ 41.8 µM) | 4.17 (≈ 20.3 µM) | 75 | – | – | – | – | – | – |
| COC(=O)CNC(=O)[BH2-][N+](C)(C)C [Compound 7, N-[(Trimethylamine-boryl)carbonyl]glycine methyl ester] | 12.11 (≈ 64.4 µM) | 7.00 (≈ 37.2 µM) | 89 | 59 | 21 | 42 | 30 | 31 | 52 |
| COC(=O)[C@H](CO)NC(=O)[BH2-][N+](C)(C)C [Compound 8, N-[(Trimethylamine-boryl)carbonyl]-L-serine methyl ester] | 9.21 (≈ 42.2 µM) | 1.98 (≈ 9.08 µM) | 61 | – | – | – | – | – | – |
| COC(=O)[C@H](CCSC)NC(=O)[BH2-][N+](C)(C)C [Compound 9, N-[(Trimethylamine-boryl)carbonyl]-L-methionine methyl ester] | 12.86 (≈ 49 µM) | 6.62 (≈ 25.2 µM) | 41 | – | – | – | 23 | 55 | 55 |
| COC(=O)[C@H](Cc1ccccc1)NC(=O)[BH2-][N+](C)(C)C [Compound 13, N-[(Trimethylamine-boryl)carbonyl]-L-phenylalanine methyl ester] | 8.89 (≈ 32 µM) | 10.84 (≈ 39 µM) | 94 | – | – | – | 33 | 25 | 48 |
| COC(=O)[C@H](C)NC(=O)[BH2-][N+](C)(C)C [Compound 16, N-[(Trimethylamine-boryl)carbonyl]-L-alanine methyl ester] | – | – | 83 | – | – | – | – | – | – |
| N[C@@H](Cc1ccc(N(CCCl)CCCl)cc1)C(=O)O [Melphalan, reference compound] | – | – | 99 | – | – | – | – | – | – |
